{"source": "the supplement of paper PMC10307832", "test_in_all_cases": "relative viability (nuclei count vs DMSO), 5 days (fraction); higher = more cells survive", "key": {"[1]": {"compound": "CC1=CC=C(C=C1)C(=O)CN2C3=C(CCCC3)SC2=N [Pifithrin_alpha] + COc1cccc2cc(-c3nc([C@H]4CC[C@H](C(=O)O)CC4)n4ncnc(N)c34)[nH]c12 [OSI-027] (partner 0.5 µM)", "method_in_brief": "(§1)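 Lung cancer cell lines in 1536-well plates were dosed by pin tool the day after seeding, either with one drug alone or with a fixed anchor-drug dose plus five library-drug doses (not always all listed) in √10 steps. After 5 days, cells were fixed and their nuclei stained in one step (final 0.05% Triton X-100, 1% formaldehyde, 1 ug/ml Hoechst), then counted on 4× images. Relative viability is the nuclei count in treated wells divided by that in vehicle wells. Values are medians of duplicate plates.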"}, "[2]": {"compound": "CC1=CC=C(C=C1)C(=O)CN2C3=C(CCCC3)SC2=N [Pifithrin_alpha] + CCNC(=O)c1noc(-c2cc(C(C)C)c(O)cc2O)c1-c1ccc(CN2CCOCC2)cc1 [Luminespib] (partner 0.01 µM)", "method_in_brief": "as §1"}, "[3]": {"compound": "CC1=CC=C(C=C1)C(=O)CN2C3=C(CCCC3)SC2=N [Pifithrin_alpha] + N=C(N)NC(=N)NCCc1ccccc1 [Phenformin] (partner 250 µM)", "method_in_brief": "as §1"}, "Axitinib + Linsitinib": {"compound": "CNC(=O)c1ccccc1Sc1ccc2c(/C=C/c3ccccn3)n[nH]c2c1 [Axitinib] + C[C@]1(O)C[C@@H](c2nc(-c3ccc4ccc(-c5ccccc5)nc4c3)c3c(N)nccn32)C1 [Linsitinib] (partner 1 µM)", "method_in_brief": "as §1"}}}
{"cell line": "NCI-H650", "values": [{"measurement": "relative viability", "setting": "[1]; first compound 3.162 µM", "result": 0.51}, {"measurement": "relative viability", "setting": "[1]; first compound 10 µM", "result": 0.582}, {"measurement": "relative viability", "setting": "[1]; first compound 31.62 µM", "result": 0.489}, {"measurement": "relative viability", "setting": "[1]; first compound 100 µM", "result": 0.427}, {"measurement": "relative viability", "setting": "[2]; first compound 3.162 µM", "result": 0.904}, {"measurement": "relative viability", "setting": "[2]; first compound 10 µM", "result": 0.801}, {"measurement": "relative viability", "setting": "[2]; first compound 31.62 µM", "result": 0.607}, {"measurement": "relative viability", "setting": "[2]; first compound 100 µM", "result": 0.773}, {"measurement": "relative viability", "setting": "[3]; first compound 3.162 µM", "result": 0.49}, {"measurement": "relative viability", "setting": "[3]; first compound 10 µM", "result": 0.454}, {"measurement": "relative viability", "setting": "[3]; first compound 31.62 µM", "result": 0.421}, {"measurement": "relative viability", "setting": "[3]; first compound 100 µM", "result": 0.421}, {"measurement": "relative viability", "setting": "Axitinib + Linsitinib; first compound 0.005 µM", "result": 0.969}, {"measurement": "relative viability", "setting": "Axitinib + Linsitinib; first compound 0.01581 µM", "result": 0.866}, {"measurement": "relative viability", "setting": "Axitinib + Linsitinib; first compound 0.05 µM", "result": 0.916}, {"measurement": "relative viability", "setting": "Axitinib + Linsitinib; first compound 0.1581 µM", "result": 0.713}, {"measurement": "relative viability", "setting": "Axitinib + Linsitinib; first compound 0.5 µM", "result": 0.759}]}
